Measured values: patent US20260022142A1, “MACROCYCLIC IMMUNOMODULATORS” (Bristol-Myers Squibb Company, priority 2022, published 2026)
Bridge positions count the residues as written; N and C are the ends. Square brackets hold non-standard residues; d marks the D form. Peptide text beside a SMILES is read from it. * marks the point of attachment. ξ: configuration not given here. Phe(4-COOH) = N[C@@H](Cc1ccc(C(=O)O)cc1)C(=O)O; Bip = N[C@@H](Cc1ccc(-c2ccccc2)cc1)C(=O)O; Phe(3-Me) = Cc1cccc(C[C@H](N)C(=O)O)c1; Val(3-OH) = CC(C)(O)[C@H](N)C(=O)O; Cha = N[C@@H](CC1CCCCC1)C(=O)O; Ile(3ξ) = CCC(C)[C@H](N)C(=O)O; Thr(3ξ) = CC(O)[C@H](N)C(=O)O; 12Ado = NCCCCCCCCCCCC(=O)O; Carboxymethyl = O=C(O)C*; Orn = NCCC[C@H](N)C(=O)O; dDap = NC[C@@H](N)C(=O)O; Aun = NCCCCCCCCCCC(=O)O; Dab = NCC[C@H](N)C(=O)O; Dap = NC[C@H](N)C(=O)O; AEEA = NCCOCCOCC(=O)O; ξC = NC(CS)C(=O)O

The compounds below were run against T1, PD-1/PD-L1 interaction (PE-labeled human PD-L1-Ig binding to Jurkat cell line over-expressing human PD-1) (Homo sapiens, UniProt Q15116) (assay: Jurkat-PD-1 Cell Binding High-Content Screening Assay (CBA)). Settings: Jurkat cell line over-expressing human PD-1; PE-labeled PD-L1-Ig 20 nM final; read-out: Jurkat hPD1-PDL1 IC50.
T1 construct: expressed in transfected cells; host or cells: Jurkat
Type: cell-based
Experimental: Example 2: Jurkat-PD-1 Cell Binding High-Content Screening Assay (CBA)
Phycoerythrin (PE) was covalently linked to the Ig epitope tag of human PD-L1-Ig and fluorescently-labeled PD-L1-Ig was used for binding studies with a Jurkat cell line over-expressing human PD-1 (Jurkat-PD-1). Briefly, 8×10^3 Jurkat-hPD-1 cells were seeded into 384 well plates in 20 μl of DMEM supplemented with 10% fetal calf serum. 100 nl of compound was added to cells followed by incubation at 37° C. for 2 h. Then, 5 μl of PE-labeled PD-L1-Ig (20 nM final), diluted in DMEM supplemented with 10% fetal calf serum. After 1 hour incubation, cells were fixed with 4% paraformaldehyde in dPBS containing 10 μg/ml Hoechst 33342 and then washed 3× in 100 μl dPBS. Data was collected and processed using a Cell Insight NXT High Content Imager and associated software.

T1 sequence (Q15116 25-288): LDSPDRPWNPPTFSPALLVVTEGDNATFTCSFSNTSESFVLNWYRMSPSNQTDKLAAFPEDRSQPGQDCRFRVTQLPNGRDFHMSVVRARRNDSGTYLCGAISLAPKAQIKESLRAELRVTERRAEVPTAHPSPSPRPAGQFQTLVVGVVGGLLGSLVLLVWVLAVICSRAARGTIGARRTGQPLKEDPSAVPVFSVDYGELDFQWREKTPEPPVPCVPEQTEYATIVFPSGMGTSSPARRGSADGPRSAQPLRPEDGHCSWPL

Row | IC50 [nM] | Structure (SMILES)
1 | 72.1 | CC(C)C[C@H]1NC(=O)[C@H](CCCN)NC(=O)[C@H](Cc2ccc(O)cc2)NC(=O)[C@H](Cc2ccc(-c3ccccc3)cc2)NC(=O)[C@H](Cc2ccc(O)cc2)NC(=O)[C@H](Cc2c[nH]c3ccccc23)NC(=O)[C@H](CC(=O)O)NC(=O)[C@H](Cc2ccc(C(=O)O)cc2)NC(=O)[C@H](Cc2ccc(OCC(=O)O)cc2)NC(=O)CSC[C@@H](C(=O)N[C@@H](CCN)C(=O)NCCCCCCCCCCC(=O)O)NC(=O)[C@H](CCCCN)NC(=O)[C@H](Cc2ccc(O)cc2)NC(=O)[C@H](CC2CCCCC2)NC(=O)[C@H](CCN)NC1=O [Compound 2507] ({CH2CO}-Y(Carboxymethyl)[Phe(4-COOH)]DWY[Bip]Y[Orn][dL][Dab][Cha]YKC[Dab][Aun]-OH; thioether N-14)
2 | 12.9 | Cc1cccc(C[C@@H]2NC(=O)[C@H](CC(=O)O)NC(=O)[C@H](Cc3ccc(OCC(=O)O)cc3)NC(=O)[C@H](C(C)O)NC(=O)CSC[C@@H](C(=O)N[C@H](CCC(=O)O)C(=O)NCCCCCCCCCCC(=O)O)NC(=O)[C@H](C(C)O)NC(=O)[C@H](C(C)C)NC(=O)[C@H](CC3CCCCC3)NC(=O)[C@H](CCN)NC(=O)[C@@H](CC(C)C)NC(=O)[C@H](CCCN)NC(=O)[C@H](C(C)C)NC(=O)[C@H](Cc3ccc(-c4ccccc4)cc3)NC(=O)[C@H](Cc3ccc(O)cc3)NC2=O)c1 (stereo partly drawn) [Compound 3435] ({CH2CO}-[Thr(3ξ)]Y(Carboxymethyl)D[Phe(3-Me)]Y[Bip]V[Orn][dL][Dab][Cha]V[Thr(3ξ)]C[dE][Aun]-OH; thioether N-14)
3 | 10.6 | Cc1cccc(C[C@@H]2NC(=O)[C@H](CC(=O)O)NC(=O)[C@H](Cc3ccc(OCC(=O)O)cc3)NC(=O)[C@H](CN)NC(=O)CSC[C@@H](C(=O)NCCOCCOCC(=O)N[C@@H](CCCCN)C(=O)NCCCCCCCCCCC(=O)O)NC(=O)[C@H](CCCNC(=N)N)NC(=O)[C@H](C(C)C)NC(=O)[C@H](CC3CCCCC3)NC(=O)[C@H](CCN)NC(=O)[C@@H](CC(C)C)NC(=O)[C@H](CCCN)NC(=O)[C@H](C(C)C)NC(=O)[C@H](Cc3ccc(-c4ccccc4)cc3)NC(=O)[C@H](C(C)C)NC2=O)c1 [Compound 2598] ({CH2CO}-[Dap]Y(Carboxymethyl)D[Phe(3-Me)]V[Bip]V[Orn][dL][Dab][Cha]VRC[AEEA]K[Aun]-OH; thioether N-14)
4 | 48.4 | CC(C)C[C@H]1NC(=O)[C@H](CCCN)NC(=O)[C@H](C(C)C)NC(=O)[C@H](Cc2ccc(-c3ccccc3)cc2)NC(=O)[C@H](C(C)C)NC(=O)[C@H](Cc2c[nH]c3ccccc23)NC(=O)[C@H](CC(=O)O)NC(=O)[C@H](Cc2ccc(OCC(=O)O)cc2)NC(=O)[C@H](CN)NC(=O)CSCC(C(=O)N[C@H](CN)C(=O)NCCCCCCCCCCC(=O)O)NC(=O)[C@H]([C@@H](C)O)NC(=O)[C@H](C(C)C)NC(=O)[C@H](CC2CCCCC2)NC(=O)[C@H](Cc2cnc[nH]2)NC1=O (stereo partly drawn) [Compound 1117] ({CH2CO}-[Dap]Y(Carboxymethyl)DWV[Bip]V[Orn][dL]H[Cha]VT[ξC][dDap][Aun]-OH; thioether N-14)
5 | 24.4 | Cc1cccc(C[C@@H]2NC(=O)[C@H](CC(=O)O)NC(=O)[C@H](Cc3ccc(OCC(=O)O)cc3)NC(=O)[C@H](CN)NC(=O)CSC[C@@H](C(=O)N[C@@H](C)CC(=O)NCCCCCCCCCCC(=O)O)NC(=O)[C@H]([C@@H](C)O)NC(=O)[C@H](C(C)C)NC(=O)[C@H](CC3CCCCC3)NC(=O)[C@H](CCN)NC(=O)[C@@H](CC(C)C)NC(=O)[C@H](CCCN)NC(=O)[C@H](CCCNC(N)=O)NC(=O)[C@H](Cc3ccc(-c4ccccc4)cc3)NC(=O)[C@H](C(C)C)NC2=O)c1 [Compound 2619]
6 | 13.2 | CC[C@H](C)[C@@H]1NC(=O)[C@H](Cc2ccc(-c3ccccc3)cc2)NC(=O)[C@H](C(C)C)NC(=O)[C@H](Cc2cccc(C)c2)NC(=O)[C@H](CC(=O)O)NC(=O)[C@H](Cc2ccc(OCC(=O)O)cc2)NC(=O)[C@H](CN)NC(=O)CSCC(C(=O)NCCOCCOCC(=O)NCCCCCCCCCCC(=O)O)NC(=O)[C@H](CN)NC(=O)[C@H](C(C)C)NC(=O)[C@H](CC2CCCCC2)NC(=O)[C@H](CCN)NC(=O)[C@@H](CC(C)C)NC(=O)[C@H](CCCN)NC1=O (stereo partly drawn) [Compound 2646] ({CH2CO}-[Dap]Y(Carboxymethyl)D[Phe(3-Me)]V[Bip]I[Orn][dL][Dab][Cha]V[Dap][ξC][AEEA][Aun]-OH; thioether N-14)
7 | 10.1 | CCC(C)[C@@H]1NC(=O)[C@H](Cc2ccc(-c3ccccc3)cc2)NC(=O)[C@H](C(C)C)NC(=O)[C@H](Cc2cccc(C)c2)NC(=O)[C@H](CC(=O)O)NC(=O)[C@H](Cc2ccc(OCC(=O)O)cc2)NC(=O)[C@H](C(C)O)NC(=O)CSC[C@@H](C(=O)NCCOCCOCC(=O)N[C@@H](CCCCN)C(=O)NCCCCCCCCCCCC(=O)O)NC(=O)[C@H](C(C)O)NC(=O)[C@H](C(C)C)NC(=O)[C@H](CC2CCCCC2)NC(=O)[C@H](CCN)NC(=O)[C@@H](CC(C)C)NC(=O)[C@H](CCCN)NC1=O (stereo partly drawn) [Compound 3095] ({CH2CO}-[Thr(3ξ)]Y(Carboxymethyl)D[Phe(3-Me)]V[Bip][Ile(3ξ)][Orn][dL][Dab][Cha]V[Thr(3ξ)]C[AEEA]K[12Ado]-OH; thioether N-14)
8 | 11.1 | Cc1cccc(C[C@@H]2NC(=O)[C@H](CC(=O)O)NC(=O)[C@H](Cc3ccc(OCC(=O)O)cc3)NC(=O)[C@H](CN)NC(=O)CSC[C@@H](C(=O)N[C@@H](CCN)C(=O)NCCCCCCCCCCC(=O)O)NC(=O)[C@H](CCCN)NC(=O)[C@H](C(C)C)NC(=O)[C@H](CC3CCCCC3)NC(=O)[C@H](CCN)NC(=O)[C@@H](CC(C)C)NC(=O)[C@H](CCCN)NC(=O)[C@H](Cc3ccc(OCC(=O)O)cc3)NC(=O)[C@H](Cc3ccc(-c4ccccc4)cc3)NC(=O)[C@H](C(C)C)NC2=O)c1 [Compound 2842] ({CH2CO}-[Dap]Y(Carboxymethyl)D[Phe(3-Me)]V[Bip]Y(Carboxymethyl)[Orn][dL][Dab][Cha]V[Orn]C[Dab][Aun]-OH; thioether N-14)
9 | 4.8 | Cc1cccc(C[C@@H]2NC(=O)[C@H](CC(=O)O)NC(=O)[C@H](Cc3ccc(C(=O)O)cc3)NC(=O)[C@H](C(C)C)NC(=O)CSC[C@@H](C(=O)N[C@@H](CCN)C(=O)NCCOCCOCC(=O)NCCCCCCCCCCC(=O)O)NC(=O)[C@H](CO)NC(=O)[C@H](C(C)(C)O)NC(=O)[C@H](CC3CCCCC3)NC(=O)[C@H](CCN)NC(=O)[C@@H](CC(C)C)NC(=O)[C@H](CCCN)NC(=O)[C@H](Cc3ccc(OCC(=O)O)cc3)NC(=O)[C@H](Cc3ccc(-c4ccccc4)cc3)NC(=O)[C@H](Cc3ccc(OCC(=O)O)cc3)NC2=O)c1 [Compound 3743] ({CH2CO}-V[Phe(4-COOH)]D[Phe(3-Me)]Y(Carboxymethyl)[Bip]Y(Carboxymethyl)[Orn][dL][Dab][Cha][Val(3-OH)]SC[Dab][AEEA][Aun]-OH; thioether N-14)
10 | 18.3 | Cc1cccc(C[C@@H]2NC(=O)[C@H](CC(=O)O)NC(=O)[C@H](Cc3ccc(OCC(=O)O)cc3)NC(=O)[C@H](CN)NC(=O)CSC[C@@H](C(=O)N[C@@H](CC(=O)O)C(=O)NCCCCCCCCCCC(=O)O)NC(=O)[C@H]([C@@H](C)O)NC(=O)[C@H](C(C)C)NC(=O)[C@H](CC3CCCCC3)NC(=O)[C@H](CCN)NC(=O)[C@@H](CC(C)C)NC(=O)[C@H](CCCN)NC(=O)[C@H](CCC(=O)O)NC(=O)[C@H](Cc3ccc(-c4ccccc4)cc3)NC(=O)[C@H](C(C)C)NC2=O)c1 [Compound 1048] ({CH2CO}-[Dap]Y(Carboxymethyl)D[Phe(3-Me)]V[Bip]E[Orn][dL][Dab][Cha]VTCD[Aun]-OH; thioether N-14)
11 | 21.9 | Cc1cccc(C[C@@H]2NC(=O)[C@H](CC(=O)O)NC(=O)[C@H](Cc3ccc(OCC(=O)O)cc3)NC(=O)[C@H](C(C)O)NC(=O)CSC[C@@H](C(=O)N[C@@H](CCN)C(=O)NCCCCCCCCCCC(=O)O)NC(=O)[C@H](CO)NC(=O)[C@H](Cc3cnc[nH]3)NC(=O)[C@H](CC3CCCCC3)NC(=O)[C@H](CCN)NC(=O)[C@@H](CC(C)C)NC(=O)[C@H](CCCN)NC(=O)[C@H](Cc3ccc(OCC(=O)O)cc3)NC(=O)[C@H](Cc3ccc(-c4ccccc4)cc3)NC(=O)[C@H](Cc3ccc(C(=O)O)cc3)NC2=O)c1 (stereo partly drawn) [Compound 3704] ({CH2CO}-[Thr(3ξ)]Y(Carboxymethyl)D[Phe(3-Me)][Phe(4-COOH)][Bip]Y(Carboxymethyl)[Orn][dL][Dab][Cha]HSC[Dab][Aun]-OH; thioether N-14)
12 | 99.1 | Cc1cccc(C[C@@H]2NC(=O)[C@H](CC(=O)O)NC(=O)[C@H](Cc3ccc(OCC(=O)O)cc3)NC(=O)[C@H](CN)NC(=O)CSC[C@@H](C(=O)N[C@@H](CCN)C(=O)NCCCCCCCCCCC(=O)O)NC(=O)[C@H](Cc3ccc(O)cc3)NC(=O)[C@H](C(C)C)NC(=O)[C@H](CC(C)C)NC(=O)[C@H](CCN)NC(=O)[C@@H](CC(C)C)NC(=O)[C@H](CCCN)NC(=O)[C@H](Cc3ccc(O)cc3)NC(=O)[C@H](Cc3ccc(-c4ccccc4)cc3)NC(=O)[C@H](C(C)C)NC2=O)c1 [Compound 2758] ({CH2CO}-[Dap]Y(Carboxymethyl)D[Phe(3-Me)]V[Bip]Y[Orn][dL][Dab]LVYC[Dab][Aun]-OH; thioether N-14)
13 | 18.4 | CC(C)C[C@H]1NC(=O)[C@H](CCCN)NC(=O)[C@H](C(C)C)NC(=O)[C@H](Cc2ccc(-c3ccccc3)cc2)NC(=O)[C@H](C(C)C)NC(=O)[C@H](Cc2c[nH]c3ccccc23)NC(=O)[C@H](CC(=O)O)NC(=O)[C@H](Cc2ccc(OCC(=O)O)cc2)NC(=O)[C@H](Cc2ccc(OCC(=O)O)cc2)NC(=O)CSC[C@@H](C(=O)NCCCCCCCCCCC(=O)O)NC(=O)[C@H](CCCNC(=N)N)NC(=O)[C@H](C(C)C)NC(=O)[C@H](CC2CCCCC2)NC(=O)[C@H](CCN)NC1=O [Compound 2602]
